# Reference: article PMC6882824, “Engineering of chimeric peptides as antagonists for the G protein-coupled receptor, RXFP4” (Scientific Reports, 2019)
# Read-outs that look alike come from different tables or passages of the source. Bridge positions count the residues as written; N and C are the ends. Peptide text beside a SMILES is read from it. I, II: the chains in the order shown.
# Assays:
# RXFP3 [1] = target: T1, RXFP3 (Homo sapiens, UniProt Q9NSD7); assay: Competition binding in CHO-K1-RXFP3 cells (Eu-H3B1-22R); conditions: CHO-K1 cells stably transfected with RXFP3, competition with 5 nM Eu-H3B1-22R
# T1 construct: expressed in transfected cells; host or cells: CHO-K1 (ATCC), stably transfected
# T1 sequence (Q9NSD7 1-469): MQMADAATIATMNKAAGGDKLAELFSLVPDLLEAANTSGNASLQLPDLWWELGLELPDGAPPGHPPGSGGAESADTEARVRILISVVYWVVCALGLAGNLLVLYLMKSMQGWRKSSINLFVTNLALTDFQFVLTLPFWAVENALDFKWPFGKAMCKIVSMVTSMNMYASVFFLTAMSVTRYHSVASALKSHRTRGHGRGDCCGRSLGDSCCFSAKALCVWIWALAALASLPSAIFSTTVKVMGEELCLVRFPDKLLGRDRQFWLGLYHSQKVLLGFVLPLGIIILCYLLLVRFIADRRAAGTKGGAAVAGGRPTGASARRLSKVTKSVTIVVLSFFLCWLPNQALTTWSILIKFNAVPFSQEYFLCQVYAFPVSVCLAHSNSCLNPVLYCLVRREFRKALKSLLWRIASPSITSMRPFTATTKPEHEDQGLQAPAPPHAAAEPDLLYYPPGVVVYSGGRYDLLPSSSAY
# Experimental: (§1) Chinese hamster ovary CHO-K1 cells (sourced from American Type Culture Collection (ATCC), Maryland, USA) stably transfected with RXFP3[33] or RXFP4[9] were plated out onto precoated poly-L-lysine 96-well view plates at a density of 50 000 cells per well. Medium was aspirated off and the cells were washed with phosphate-buffered saline (PBS) before competition binding assays were performed with 5 nM Eu-H3B1–22R[34] (RXFP3 ligand) or 5 nM Eu-DTPA-mINSL5[9] (RXFP4 ligand) as previously described. Competition binding curves were performed in triplicate and each experiment was performed independently at least three times. Fluorescent measurements were carried out on a BMG POLARstar plate reader (BMG Labtech, Melbourne, Australia. Pooled data are presented as mean ± S.E of specific binding and are fitted using one-site binding curve in GraphPad Prism version 8 (GraphPad Inc., San Diego, USA). Statistical analyses were conducted using one-way analysis of variance with uncorrected Fisher’s least significant difference (LSD) post-hoc analysis in GraphPad Prism version 8.
# RXFP3 [2] = target: T1, RXFP3; assay: cAMP agonist assay (inhibition of forskolin-induced cAMP, pCRE β-galactosidase reporter) in CHO-K1-RXFP3 cells; type: cell-based; conditions: SEM; read-out: RXFP3 Activity pEC50 (converted)
# Experimental: (§2) The peptides were tested for their ability to inhibit forskolin induced cAMP activity in CHO-K1-RXFP3 or CHO-K1-RXFP4 cells transfected with a pCRE (cAMP Response Element) β-galactosidase reporter plasmid as previously described[9],[34]. For agonist assays cells were stimulated with forskolin (5 µM for RXFP3, 1 µM for RXFP4) plus or minus increasing concentrations of each peptide for 6 hours. For antagonist assays cells were stimulated with forskolin as in agonist assays plus increasing concentrations of each peptide for 10 minutes followed by stimulation with agonist at an ~EC80 concentration for a further 6 hours (10 nM Analogue 2 for RXFP3 and 16.6 nM Analogue 13 for RXFP4). Each peptide was tested in triplicate and each experiment was performed independently at least three times. Agonist data was expressed as the % Forskolin activity whereby 100% was defined as Forskolin alone and 0% as maximum agonist stimulation (1 µM Analogue 2 for RXFP3 and 1 µM Analogue 13 for RXFP4). […] Data were analysed and plotted using GraphPad PRISM 8 and are expressed as the mean ± SEM of the pooled data. Statistical analysis was conducted using one-way ANOVA with Uncorrected Fisher’s LSD post-hoc analysis in GraphPad Prism version 8.
# RXFP4 [3] = target: T2, RXFP4 (Homo sapiens, UniProt Q8TDU9); assay: Competition binding in CHO-K1-RXFP4 cells (Eu-DTPA-mINSL5); design: expressed in transfected cells; host or cells: CHO-K1 (ATCC), stably transfected; conditions: CHO-K1 cells stably transfected with RXFP4, competition with 5 nM Eu-DTPA-mINSL5
# T2 sequence (Q8TDU9 whole entry): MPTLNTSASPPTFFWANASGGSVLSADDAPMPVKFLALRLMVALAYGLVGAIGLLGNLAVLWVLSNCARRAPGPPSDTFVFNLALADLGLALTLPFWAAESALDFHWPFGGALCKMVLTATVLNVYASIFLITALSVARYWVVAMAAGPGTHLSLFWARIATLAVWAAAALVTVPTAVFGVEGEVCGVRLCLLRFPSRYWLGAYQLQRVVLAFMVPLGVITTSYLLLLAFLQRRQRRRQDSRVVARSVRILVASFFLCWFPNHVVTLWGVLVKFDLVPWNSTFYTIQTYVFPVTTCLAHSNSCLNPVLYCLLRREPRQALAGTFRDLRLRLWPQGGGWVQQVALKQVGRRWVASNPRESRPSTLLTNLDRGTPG
# Experimental: as §1
# RXFP4 [4] = target: T2, RXFP4; assay: cAMP agonist assay (inhibition of forskolin-induced cAMP, pCRE β-galactosidase reporter) in CHO-K1-RXFP4 cells; type: cell-based; design: expressed in transfected cells; host or cells: CHO-K1 (ATCC), stably transfected; conditions: for RXFP4 Activity pEC50: CHO-K1-RXFP4 cells, inhibition of 1 µM forskolin-induced cAMP, 6 hours, mean ± SEM, n in cell
# Experimental: as §2
# RXFP3 [5] = target: T1, RXFP3; assay: cAMP antagonist assay against 10 nM analogue 2 in CHO-K1-RXFP3 cells; type: cell-based; conditions: SEM; read-out: RXFP3 Emax (antagonist efficacy)
# Experimental: as §2
# RXFP4 [6] = target: T2, RXFP4; assay: cAMP antagonist assay against 16.6 nM analogue 13 in CHO-K1-RXFP4 cells; type: cell-based; design: expressed in transfected cells; host or cells: CHO-K1 (ATCC), stably transfected; conditions: SEM; read-out: RXFP4 Emax (antagonist efficacy)
# Experimental: as §2
structure (smiles),measurement,setting,value
"CC[C@H](C)[C@@H]1NC(=O)[C@H](Cc2ccccc2)NC(=O)[C@H](CCC(=O)O)NC(=O)[C@H](CCCNC(=N)N)NC(=O)CNC(=O)[C@@H](NC(=O)[C@H](CC(C)C)NC(=O)[C@H](CCCNC(=N)N)NC(=O)[C@@H](NC(=O)CNC(=O)[C@H](Cc2ccc(O)cc2)NC(=O)[C@@H]2CCCN2C(=O)[C@H](C)NC(=O)[C@H](C)NC(=O)[C@@H](N)CCCNC(=N)N)C(C)C)CSSC[C@H](N)C(=O)N[C@@H](CCCCN)C(=O)N[C@@H](Cc2c[nH]c3ccccc23)C(=O)NCC(=O)N[C@@H](CO)C(=O)N[C@@H](C)C(=O)N[C@@H](CCCCN)C(=O)N[C@@H](CO)C(=O)N[C@@H](CCC(=O)O)C(=O)N[C@@H]([C@@H](C)CC)C(=O)N[C@@H](CO)C(=O)N[C@@H](CO)C(=O)N[C@@H](CC(C)C)C(=O)N[C@H](C(=O)O)CSSC[C@@H](C(=O)NCC(=O)NCC(=O)N[C@@H](CO)C(=O)N[C@@H](CCCNC(=N)N)C(=O)N[C@@H](Cc2c[nH]c3ccccc23)C(=O)O)NC(=O)[C@H]([C@@H](C)O)NC(=O)[C@H](Cc2ccccc2)NC(=O)[C@H]([C@@H](C)CC)NC(=O)[C@H](C(C)C)NC(=O)[C@H](C)NC(=O)[C@H](CCCNC(=N)N)NC1=O [Analogue 2, reference compound]",Ki,RXFP3 [1]; read-out: RXFP3 Binding Ki,19.1 nM
same,EC50,RXFP3 [2],3.72 nM
same,Ki,RXFP4 [3]; read-out: RXFP4 Binding Ki,79.4 nM
same,EC50,RXFP4 [4],19.9 nM
"CC[C@H](C)[C@@H]1NC(=O)[C@H](Cc2ccccc2)NC(=O)[C@H](CCC(=O)O)NC(=O)[C@H](CCCNC(=N)N)NC(=O)CNC(=O)[C@@H](NC(=O)[C@H](CC(C)C)NC(=O)[C@H](CCCNC(=N)N)NC(=O)[C@@H](NC(=O)CNC(=O)[C@H](Cc2ccc(O)cc2)NC(=O)[C@@H]2CCCN2C(=O)[C@H](C)NC(=O)[C@H](C)NC(=O)[C@@H](N)CCCNC(=N)N)C(C)C)CSSC[C@H](N)C(=O)N[C@@H]([C@@H](C)O)C(=O)N[C@@H](CC(=O)O)C(=O)NCC(=O)N[C@@H](C)C(=O)N[C@@H](CO)C(=O)N[C@@H](CCSC)C(=O)N[C@@H](CCCCN)C(=O)N[C@@H](CC(=O)O)C(=O)N[C@@H](CC(C)C)C(=O)N[C@@H](CO)C(=O)N[C@@H](C)C(=O)N[C@@H](CC(C)C)C(=O)N[C@H](C(=O)O)CSSC[C@@H](C(=O)N[C@@H](CCCNC(=N)N)C(=O)O)NC(=O)[C@H]([C@@H](C)CC)NC(=O)[C@H](Cc2ccccc2)NC(=O)[C@H]([C@@H](C)CC)NC(=O)[C@H](C(C)C)NC(=O)[C@H](C)NC(=O)[C@H](CCCNC(=N)N)NC1=O [Analogue 16] (I: H-RAAPYGVRLCGREFIRAVIFICR-OH / II: H-CTDGASMKDLSALC-OH; disulfide I:10-II:1, I:22-II:14; N-terminus assumed)",Emax,RXFP3 [5],55.8 ± 3.4%
same,RXFP4 Activity pEC50,RXFP4 [4],Weak partial agonist (4)
same,Emax,RXFP4 [6],2.1 ± 4.7%
"CC[C@H](C)[C@@H]1NC(=O)[C@H](Cc2ccccc2)NC(=O)[C@H]([C@@H](C)CC)NC(=O)[C@H](C(C)C)NC(=O)[C@H]([C@@H](C)O)NC(=O)[C@H](CCCNC(=N)N)NC(=O)[C@H]([C@@H](C)CC)NC(=O)[C@H](Cc2ccccc2)NC(=O)[C@H](CCC(=O)O)NC(=O)[C@H](CC(C)C)NC(=O)CNC(=O)[C@@H](NC(=O)[C@H](CC(C)C)NC(=O)[C@H](CCCNC(=N)N)NC(=O)[C@@H](NC(=O)CNC(=O)[C@H](CCC(=O)O)NC(=O)[C@H](CCCCN)NC(=O)[C@H](C)NC(=O)[C@H](C)NC(=O)[C@@H](N)CCCNC(=N)N)C(C)C)CSSC[C@H](N)C(=O)N[C@@H]([C@@H](C)O)C(=O)N[C@@H](CC(=O)O)C(=O)NCC(=O)N[C@@H](C)C(=O)N[C@@H](CO)C(=O)N[C@@H](CCSC)C(=O)N[C@@H](CCCCN)C(=O)N[C@@H](CC(=O)O)C(=O)N[C@@H](CC(C)C)C(=O)N[C@@H](CO)C(=O)N[C@@H](C)C(=O)N[C@@H](CC(C)C)C(=O)N[C@H](C(=O)O)CSSC[C@@H](C(=O)N[C@@H](CCCNC(=N)N)C(=O)O)NC1=O [Analogue 20] (I: H-RAAKEGVRLCGLEFIRTVIFICR-OH / II: H-CTDGASMKDLSALC-OH; disulfide I:10-II:1, I:22-II:14; N-terminus assumed)",Emax,RXFP3 [5],19.9 ± 2.3%
same,RXFP4 Activity pEC50,RXFP4 [4],Weak partial agonist (4)
same,Emax,RXFP4 [6],8.1 ± 9.5%
"CC[C@H](C)[C@@H]1NC(=O)[C@H](Cc2ccccc2)NC(=O)[C@H](CCC(=O)O)NC(=O)[C@H](CCCNC(=N)N)NC(=O)CNC(=O)[C@@H](NC(=O)[C@H](CC(C)C)NC(=O)[C@H](CCCNC(=N)N)NC(=O)[C@@H](NC(=O)CNC(=O)[C@H](Cc2ccc(O)cc2)NC(=O)[C@@H]2CCCN2C(=O)[C@H](C)NC(=O)[C@H](C)NC(=O)[C@@H](N)CCCNC(=N)N)C(C)C)CSSC[C@@H]2NC(=O)[C@@H](NC(=O)[C@H](CO)NC(=O)[C@H](CO)NC(=O)[C@H](CO)NC(=O)[C@H](CC(C)C)NC(=O)CNC(=O)[C@H](C)NC(=O)[C@H](CC(C)C)NC(=O)[C@@H](NC(=O)[C@@H](N)CC(=O)O)C(C)C)CSSC[C@H](NC(=O)CNC(=O)[C@H](Cc3c[nH]c4ccccc34)NC(=O)[C@H](CCCCN)NC2=O)C(=O)N[C@@H](CO)C(=O)N[C@@H](CCCCN)C(=O)N[C@@H](CO)C(=O)N[C@@H](CCC(=O)O)C(=O)N[C@@H]([C@@H](C)CC)C(=O)N[C@@H](CO)C(=O)N[C@@H](CO)C(=O)N[C@@H](CC(C)C)C(=O)N[C@H](C(=O)O)CSSC[C@@H](C(=O)NCC(=O)NCC(=O)N[C@@H](CO)C(=O)N[C@@H](CCCNC(=N)N)C(=O)N[C@@H](Cc2c[nH]c3ccccc23)C(=O)O)NC(=O)[C@H]([C@@H](C)O)NC(=O)[C@H](Cc2ccccc2)NC(=O)[C@H]([C@@H](C)CC)NC(=O)[C@H](C(C)C)NC(=O)[C@H](C)NC(=O)[C@H](CCCNC(=N)N)NC1=O [Relaxin 3 (R3), reference compound]",Ki,"RXFP3 [1]; mean ± SEM, n in cell, SEM, read-out: RXFP3 Binding pKi (converted)",22.9 nM
same,EC50,RXFP3 [2],0.832 nM
same,Ki,"RXFP4 [3]; mean ± SEM, n in cell, SEM, read-out: RXFP4 Binding pKi (converted)",2.29 nM
